Molecules are shown by their SMILES. Where only a bound is given, the exact number is not on record here.

For series [1], the system named is adjuvant arthritis caused by Mycobacterium butyricum. Nature of the series: Efficacy against adjuvant arthritis. The series is classed as in vivo. The note with it: for preventing effect on emergence of adjuvant arthritis: daily doses from day 0, GlcN HCl 90 mg, GV-GlcN 30 mg glucosamine equivalent, FIG. 6; for paw thickness after treatment of established adjuvant arthritis: four days of daily doses from day 14, GlcN 90 mg/kg, GV-GlcN 30 mg/kg GlcN equivalent, FIG. 7. As to the method:
Under anesthesia, rats were injected with 0.2 ml of 50 mg/ml Mycobacterium butyricum suspended in squalene in the base of the tail (day 0). Their paw thickness was measure daily. Within 12-14 days significant increases in paw thickness were noticed, indicative of the emergence if adjuvant arthritis. Repeated daily doses of drugs were administered either right after the time of Mycobacterium injection (to prevent emergence of arthritis) or after the appearance of arthritis (to treat arthritis). Animals were monitored for their arthritis status during the entire length of the experiment.
On day zero, Mycobacterium butyricum is injected to all rats along with daily doses of glucosamine, GV-GlnN or placebo. The placebo group develops severe AA but not the ones that received either treatment. Upon discontinuation of the treatments, AA emerges (FIG. 6).

Series [2] in a line: Chemical stability (60° C. oven for 48 h). The note with it: 60° C. for 48 h; <96% considered unstable. The series is classed as physicochemical. As to the method:
Compounds were transferred into transparent glass vials and placed in 60° C. oven for 48 h. Compound with <96% stability are considered unstable.

The nature of series [3]: Stability in the gut (incubation with homogenized rat stomach or intestine). The series is classed as in vitro ADME. The conditions noted are these: incubated with homogenized rat stomach (pH 1.0) or intestine (pH 7.4); read-out: t1/2 of decomposition in the presence of rat gut. The protocol:
(§1) Pro-drugs were incubated for 2 h with homogenized rat stomach or intestine while the pH is kept at 1.0 or 7.4, respectively. Samples are taken at 30 min interval for the analysis of the pro-drug and GlcN. This procedure was used as a prerequisite to further tests described in Examples 6, 7 and 8. A compound with low stability under this condition was decided to be unsuitable for further test. […] Everted rat gut sacks are immersed in 80 μg/mL (GlcN equivalent) of GlucN HCl or GV-GluN HCl solution. The appearance of glucosamine each compound inside the sack (serosal) was measured. […] Gly-Val-COO-GlcN is GV-GlycN.

Series [4] in a line: Absorption through everted rat gut. Format: in vitro ADME. As to the method: as §1
A mid line incision was made in the anesthetised rat abdomen, the intestine was exposed and five 10 cm segments of the jejunum are cut. In ice cold Krebs Henseleit buffer, the intestinal content are removed and each segment are everted over a glass rod, tied from one side, a polyethylene tube is inserted into the other side and tied. The segments are filled with buffer and incubated in a perfusion apparatus containing oxygenated Krebs Henseleit buffer at 37° C. The test compound was added to the mucosal (outer surface of the everted gut) and serial samples were collected from both sides. The percent of the movement from outside (mucosal) to inside (serosal) was measured and compared (FIG. 4). […]

Series [5] in a line: Bioavailability in the rat (plasma GlcN AUC after oral dose). The series is classed as in vivo. As to the method:
Prodrugs or GlcN HCl or sulphate were administered to rats in single oral doses equivalent to a fix amount of GlcN. Plasma GlcN concentrations were measured using HPLC in serial sample collected over a period of time. The areas under plasma-concentration-time curves (AUC or relative bioavailability) were calculated and compared (FIGS. 5 and 5a).

The conditions of series [6]: oral administration, reference (23); cited from earlier work.

For `N[C@H]1C(O)O[C@H](CO)[C@@H](O)[C@@H]1O` (stereo partly shown) [GlcN, Glucosamine], in series [1], the “preventing effect on emergence of adjuvant arthritis” value was “prevent the disease” and the “paw thickness after treatment of established adjuvant arthritis” value (“paw thickness after treatment” for short) was “significantly reduce the paw thickness”. In addition, in series [1] (listed as GlcN HCl), the “paw thickness after treatment” value was “Significant (p>0.05) reduced paw thickness”.
In the case of `CC(C)C(NC(=O)CN)C(=O)OCC1OC(O)C(N)C(O)C1O` (stereo not shown) [GV-GlcN, (5-amino-3,4,6-trihydroxyoxan-2-yl)methyl 2-(2-aminoacetamido)-3-methylbutanoate], in series [2], the “physicochemical stability (percent stable)” value is more than 96%. Moreover, the half-life in series [3] was more than 16 h. Moreover, in series [4] (60 minutes exposure, FIG. 4), the “stability after exposure to the gut (no conversion into glucosamine)” value is on record as “greater than 96%”. In addition, the “transport across everted rat gut” value in series [4] (mucosal to serosal) was approximately 80%. Besides, the “area under the plasma glucosamine concentration-time curve compared with GlcN” value in series [5] (110 mg/kg (GlcN equivalent), FIG. 5A, n=3-5/group) is given as “significantly greater than GlcN”. The “mean AUC (bioavailability) of GlcN in rat plasma compared with GlcN HCl” value in series [5] (oral, 110 mg GlcN equivalent, FIG. 5, AUC(0-4)) was “significantly and substantially greater”. In addition, in series [1], the “preventing effect on emergence of adjuvant arthritis” value is listed as “prevent the disease” and the “paw thickness after treatment” value is reported as “significantly reduce the paw thickness”. In addition, the “paw thickness after treatment” value in series [1] (listed as GV-GluN) was “Significant (p>0.05) reduced paw thickness”.
Turning to `N[C@H]1C(O)O[C@H](CO)[C@@H](O)[C@@H]1O.N[C@H]1C(O)O[C@H](CO)[C@@H](O)[C@@H]1O.O=S(=O)(O)O` (stereo partly shown) [GlcN sulfate], the “AUC of GlcN after oral HCl versus sulphate salt” value in series [6] is recorded as “equal AUC values”.

Source of the values: patent publication US8772227B2, “Glucosamine pro-drug” (priority 2011, dated 2014).
